Source: paper PMC5769128, “Human UDP-Glucuronosyltransferase 2B4 and 2B7 Are Responsible for Naftopidil Glucuronidation in Vitro” (Frontiers in Pharmacology, 2018)

Experiments:
recombinant human UGT2B4 = molecular target: T1, recombinant human UGT2B4 (Homo sapiens, UniProt P06133); test: Kinetics of NAF enantiomer glucuronidation by recombinant UGT2B4; assay type: in vitro ADME
T1 construct: purchased BD Gentest
T1 sequence (P06133 24-528): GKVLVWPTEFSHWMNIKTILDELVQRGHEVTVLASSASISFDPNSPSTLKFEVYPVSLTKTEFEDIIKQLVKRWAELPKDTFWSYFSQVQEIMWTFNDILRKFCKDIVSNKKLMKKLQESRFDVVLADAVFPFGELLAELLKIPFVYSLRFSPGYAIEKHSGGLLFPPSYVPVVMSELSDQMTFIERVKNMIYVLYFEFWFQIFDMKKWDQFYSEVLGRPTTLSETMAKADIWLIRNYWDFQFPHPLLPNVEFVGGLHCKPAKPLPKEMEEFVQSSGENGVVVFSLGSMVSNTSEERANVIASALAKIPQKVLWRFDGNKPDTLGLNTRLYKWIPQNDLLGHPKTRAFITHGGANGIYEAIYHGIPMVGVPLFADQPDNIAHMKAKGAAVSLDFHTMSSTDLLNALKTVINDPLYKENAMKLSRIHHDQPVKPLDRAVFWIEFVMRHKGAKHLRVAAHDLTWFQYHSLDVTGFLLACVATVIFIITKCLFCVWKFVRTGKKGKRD
Description: All glucuronidation assays were conducted in an incubation volume of 200 μL. Incubations were performed at 37°C in 50 mM Tris–HCl buffer (pH 7.5) with 10 mM magnesium chloride, 1 mg protein/mL of enzyme (microsomes and recombinant human UGTs), alamethicin (100 μg of alamethicin/mg microsomal protein), and NAF enantiomers (2.5–80 μM). The reaction was initiated by the addition of UDPGA (5 mM) and incubated at 37°C in a shaking water bath for 45 min. The reaction was terminated by the addition of 200 μL of ice-cold acetonitrile containing the IS (1 μM) and then centrifuged at 5000 ×g for 10 min at 4°C. The supernatant fraction was injected into the RRLC-MS/MS apparatus. Protein concentration (0.5–2 mg/mL) and incubation time (15–180 min) were optimized in preliminary studies to be within initial linear rate conditions.
Kinetic parameters were assessed in the HLM, RLM, HKM, RKM, and recombinant human UGTs (UGT2B4, 2B7, and 1A9).

UGT1A7 = molecular target: T2, UGT1A7 (Homo sapiens, UniProt Q9HAW7); test: Inhibition screening of recombinant UGTs by NAF enantiomers, UGT1A7 (4-MU); assay type: in vitro ADME; details: recombinant UGT1A7, probe 4-MU, 100 μM NAF enantiomer, read-out: Inhibition of 4-MU-G formation
T2 construct: purchased BD Gentest
T2 sequence (Q9HAW7 26-530): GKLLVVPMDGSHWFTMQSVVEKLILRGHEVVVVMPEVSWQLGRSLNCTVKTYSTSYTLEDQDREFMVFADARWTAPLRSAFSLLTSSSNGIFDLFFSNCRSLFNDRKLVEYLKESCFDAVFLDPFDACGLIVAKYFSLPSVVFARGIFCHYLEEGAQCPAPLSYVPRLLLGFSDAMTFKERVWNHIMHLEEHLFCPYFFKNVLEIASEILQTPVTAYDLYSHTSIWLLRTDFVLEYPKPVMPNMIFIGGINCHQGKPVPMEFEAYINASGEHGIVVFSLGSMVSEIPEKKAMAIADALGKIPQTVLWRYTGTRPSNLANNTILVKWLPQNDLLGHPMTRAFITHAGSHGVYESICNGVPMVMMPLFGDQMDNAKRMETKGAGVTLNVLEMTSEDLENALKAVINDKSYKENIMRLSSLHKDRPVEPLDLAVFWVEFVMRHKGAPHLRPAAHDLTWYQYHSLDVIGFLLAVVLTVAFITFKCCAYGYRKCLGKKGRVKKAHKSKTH
Description: The inhibition screening study was performed by investigating the 12 recombinant UGTs with 10 and 100 μM NAF enantiomer. […] 4-MU, as a non-specific substrate, was added to the other incubated samples. Instead of NAF enantiomers, the same volume of water was added to be the control sample. […] The formation of 4-MU-G and TFP-G produced from the 12 incubation system were analyzed by HPLC. The instrument parameters for the LC were as follows: system, Agilent 1260; Agilent Eclipse Plus C18 (2.1 mm × 50 mm, 1.8 μm, Santa Clara, CA, United States); mobile phase, methanol: 0.1% formic acid in water (0–3 min, 35:65; 3.1–4.5 min, 65:35; 4.6–5 min, 35:65); flow rate, 0.4 mL/min; column temperature, 25°C; and injection volume, 2 μL. The retention times of 4-MU, 4-MU-G, TFP, TFP-G, and MU (IS) were 1.5, 0.5, 2.2, 1.8, and 1.0 min, respectively.

recombinant human UGT1A6 = molecular target: T3, recombinant human UGT1A6 (Homo sapiens, UniProt P19224); test: UGT reaction screening of NAF enantiomers, UGT1A6; details: 10 μM substrate, 45 min
T3 sequence (P19224 27-532): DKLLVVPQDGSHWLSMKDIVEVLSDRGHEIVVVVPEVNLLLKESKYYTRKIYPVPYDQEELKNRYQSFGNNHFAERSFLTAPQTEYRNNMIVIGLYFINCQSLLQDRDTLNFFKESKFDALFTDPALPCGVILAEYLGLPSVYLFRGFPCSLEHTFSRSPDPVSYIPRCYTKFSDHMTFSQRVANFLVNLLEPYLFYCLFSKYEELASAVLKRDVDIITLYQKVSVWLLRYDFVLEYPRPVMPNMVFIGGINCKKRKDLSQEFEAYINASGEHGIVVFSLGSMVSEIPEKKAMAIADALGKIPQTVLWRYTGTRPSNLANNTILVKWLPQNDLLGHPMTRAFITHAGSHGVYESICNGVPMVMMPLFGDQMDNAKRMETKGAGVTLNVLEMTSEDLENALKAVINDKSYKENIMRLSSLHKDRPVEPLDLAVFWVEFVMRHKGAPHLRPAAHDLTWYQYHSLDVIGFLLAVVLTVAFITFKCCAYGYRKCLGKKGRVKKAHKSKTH

| Kinetics type (recombinant human UGT2B4) | inhibition at 100 μM (UGT1A7) [%] | Glucuronide formation by UGT1A6 (recombinant human UGT1A6) | Structure (SMILES) |
| --- | --- | --- | --- |
| substrate inhibition model | > 75 | No R(+)-NAF-G was detected | COc1ccccc1N1CCN(C[C@@H](O)COc2cccc3ccccc23)CC1 [R(+)-NAF] |
| substrate inhibition model | > 75 | no activity | COc1ccccc1N1CCN(C[C@H](O)COc2cccc3ccccc23)CC1 [S(-)-NAF] |
